This note sets out measurements from article PMC7684764 (Journal of medicinal chemistry, 2020).

The subject of data set [1] is Salmonella typhimurium strain (with modified TA100). The note with it: with liver S9 fraction activation.
Data set [2] deals with T1, APN (CD13, microsomal aminopeptidase) (Sus scrofa, UniProt P15145).
T1 sequence (P15145 1-963): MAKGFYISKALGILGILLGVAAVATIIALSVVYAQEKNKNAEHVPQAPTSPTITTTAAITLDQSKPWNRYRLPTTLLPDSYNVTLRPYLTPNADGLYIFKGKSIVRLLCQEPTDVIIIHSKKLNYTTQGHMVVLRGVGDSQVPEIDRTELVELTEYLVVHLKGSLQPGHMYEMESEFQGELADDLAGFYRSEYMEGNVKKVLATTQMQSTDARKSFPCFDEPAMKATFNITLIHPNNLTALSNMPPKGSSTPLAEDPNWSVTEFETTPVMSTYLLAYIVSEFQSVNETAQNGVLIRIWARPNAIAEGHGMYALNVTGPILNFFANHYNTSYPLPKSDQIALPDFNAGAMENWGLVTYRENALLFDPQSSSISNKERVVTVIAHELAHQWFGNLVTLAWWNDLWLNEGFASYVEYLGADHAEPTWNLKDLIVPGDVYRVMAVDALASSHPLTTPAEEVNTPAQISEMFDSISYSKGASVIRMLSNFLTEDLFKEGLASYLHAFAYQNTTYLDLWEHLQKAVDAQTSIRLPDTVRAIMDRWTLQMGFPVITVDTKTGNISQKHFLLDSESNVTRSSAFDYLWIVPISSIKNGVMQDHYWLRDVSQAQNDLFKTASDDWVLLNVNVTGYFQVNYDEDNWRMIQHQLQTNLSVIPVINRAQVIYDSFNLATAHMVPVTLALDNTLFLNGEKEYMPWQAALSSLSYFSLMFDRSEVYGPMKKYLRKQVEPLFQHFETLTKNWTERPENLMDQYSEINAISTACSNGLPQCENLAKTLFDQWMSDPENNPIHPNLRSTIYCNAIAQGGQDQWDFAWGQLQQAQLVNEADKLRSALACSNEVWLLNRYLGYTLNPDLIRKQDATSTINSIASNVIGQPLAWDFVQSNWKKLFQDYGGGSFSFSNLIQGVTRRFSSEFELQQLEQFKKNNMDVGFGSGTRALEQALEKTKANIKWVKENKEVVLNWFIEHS
The experiment in a line: CD13 inhibition assay. Type of data set: biochemical, porcine. Particulars: 13a 50 μM and 10 μM, Figure S4.

Data set [3] has as its system MV4–11 cells. The experiment in a line: Release profile by western blot after drug wash-out. Type of data set: cell-based. Particulars: MV4–11, 3 h treatment, up to 6 h, Figure 3B.
Data set [4] concerns MV4–11 cells. The data set is described as follows: Western blot analysis. Type of data set: cell-based. Particulars: for increase in Hsp70 levels: 24 h, Figures 5A and C (MV4–11 and RS4;11); for FLT3 and STAT5 levels / pro-caspase3 cleavage: wt-p53 FLT3-ITD MV4–11, 24 h, Figure 5A.
The next data set concerns RS4;11 cells. The experiment in a line: Western blot analysis. Type of data set: cell-based. Particulars: wt-p53 wt-FLT3 RS4;11, 24 h; 13a 200 nM, panobinostat 100 nM, vorinostat 5000 nM.
Another data set has as its system HL60 cells. The experiment in a line: Western blot analysis. Type of data set: cell-based. The note with it: p53-null wt-FLT3 HL60, 24 h, Figure 5D.
In the next data set the test system is SR cell line. The data set is described as follows: Western blot analysis. Type of data set: cell-based. The note with it: wt-p53 SR, 24 h, Figure S7. In general terms: Immunoblotting shows a protein as a band on a membrane.
The test system of data set [5] is MV4–11 cells. The experiment in a line: Combination index. Type of data set: cell-based. Particulars: MV4–11, 48 h, lower concentrations, Figure S8.
The test system of another data set is NCI60 tumor cell lines. The data set is described as follows: NCI60 tumor cell lines screen, whole panel. Type of data set: cell-based. The note with it: concentrations under 10 μM.
The test system of data set [6] is MV4–11 cells. The data set is described as follows: EC50 analysis. The class given is cell-based. Particulars: MV4–11, 50 μM.
A further data set has as its target HDAC1 (Homo sapiens, UniProt Q13547). The data set is described as follows: In vitro HDACs inhibition fluorescence assay. The class given is biochemical. The note with it: IC50 curves after pre-incubation of 10, 30, 60 and 90 min, Figure 3A.
A further data set has as its target HDAC3 (Homo sapiens, UniProt O15379). The data set is described as follows: In vitro HDACs inhibition fluorescence assay. The class given is biochemical.

HDAC1, sequence (Q13547 whole entry): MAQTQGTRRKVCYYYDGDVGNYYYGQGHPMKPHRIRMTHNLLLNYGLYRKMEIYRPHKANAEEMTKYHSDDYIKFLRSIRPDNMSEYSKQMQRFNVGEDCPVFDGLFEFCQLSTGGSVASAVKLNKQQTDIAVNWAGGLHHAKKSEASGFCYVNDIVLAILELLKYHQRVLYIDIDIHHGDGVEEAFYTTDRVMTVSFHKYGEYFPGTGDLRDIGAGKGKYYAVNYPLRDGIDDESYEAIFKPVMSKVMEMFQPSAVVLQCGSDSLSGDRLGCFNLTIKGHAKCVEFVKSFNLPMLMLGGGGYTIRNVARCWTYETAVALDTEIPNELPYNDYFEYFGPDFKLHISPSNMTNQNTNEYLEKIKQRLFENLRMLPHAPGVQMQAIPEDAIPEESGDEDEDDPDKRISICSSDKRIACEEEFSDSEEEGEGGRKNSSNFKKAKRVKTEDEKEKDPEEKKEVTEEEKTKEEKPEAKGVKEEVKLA
HDAC3, sequence (O15379 whole entry): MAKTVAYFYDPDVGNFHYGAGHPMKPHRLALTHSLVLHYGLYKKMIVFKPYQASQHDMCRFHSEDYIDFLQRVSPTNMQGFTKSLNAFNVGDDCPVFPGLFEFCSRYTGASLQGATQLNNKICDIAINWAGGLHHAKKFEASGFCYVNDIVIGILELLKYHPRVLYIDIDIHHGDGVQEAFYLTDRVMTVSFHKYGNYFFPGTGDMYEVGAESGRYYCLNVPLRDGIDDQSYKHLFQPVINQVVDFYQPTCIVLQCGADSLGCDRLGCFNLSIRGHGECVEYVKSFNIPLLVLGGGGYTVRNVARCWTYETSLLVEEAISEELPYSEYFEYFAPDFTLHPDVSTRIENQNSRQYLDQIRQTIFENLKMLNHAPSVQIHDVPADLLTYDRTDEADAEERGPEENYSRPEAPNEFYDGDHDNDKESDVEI
HDAC3, sequence (Q9Y618 395-489 partner limits assumed): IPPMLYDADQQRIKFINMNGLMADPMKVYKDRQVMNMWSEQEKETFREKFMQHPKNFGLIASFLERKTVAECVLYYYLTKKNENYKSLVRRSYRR

Take `Nc1ccc2cc3ccccc3cc2c1` [2-aminoanthracene]: the “mutagenicity, Mini-Ames” value in data set [1] is “Ames positive”.
Take `CCCNNC(=O)/C=C/c1ccc(CNCCc2c(C)[nH]c3ccccc23)cc1.O=C(O)C(F)(F)F` [Compound 13a, (E)-2-(2-methyl-1H-indol-3-yl)-N-(4-(3-oxo-3-(2-propylhydrazinyl)prop-1-en-1-yl)benzyl)ethanaminium 2,2,2-trifluoroacetate]: the “inhibition of APN” value in [2] was “does not show any inhibition”. In the data set on MV4–11 cells [3], the acetylation of tubulin entry is “does not increase the acetylation of tubulin” and the “histone acetylation after removal of drug” value is given as “does not decrease within 6 h”. Moreover, in the data set on MV4–11 cells [4], the “increase in Hsp70 levels” value is recorded as “not observed”; the “FLT3 and STAT5 levels” value is on record as “down-regulate”; the pro-caspase3 cleavage entry was “observed”. In addition, the “cleavage of pro-caspase3” value with RS4;11 cells is listed as “only observed at high dose”. In addition, the pro-caspase3 cleavage entry in the data set with HL60 cells is reported as “not cleaved”. For the same molecule, the pro-caspase3 cleavage result in the data set with SR cell line is “does not cleave”. For the same molecule, the “interaction of 13a with 17-AAG in anti-proliferation activity” value with MV4–11 cells [5] is listed as “antagonized”. Further, the “number of the 60 cell lines with lethality under 10 μM” value in the data set with NCI60 tumor cell lines came to 10. For the same molecule, in data set [1], the “mutagenicity, Mini-Ames” value is “not mutagenic”.
In the case of `Cc1[nH]c2ccccc2c1CCNCc1ccc(/C=C/C(=O)NN(C)C)cc1.O=C(O)C(F)(F)F` [Compound 26a, (E)-N-(4-(3-(2,2-dimethylhydrazinyl)-3-oxoprop-1-en-1-yl)benzyl)-2-(2-methyl-1H-indol-3-yl)ethanaminium 2,2,2-trifluoroacetate], in the data set on MV4–11 cells [6], the “effect on cell proliferation at 50 μM” value is recorded as “do not affect cell proliferation”.
Turning to `Cc1[nH]c2ccccc2c1CCNCc1ccc(/C=C/C(=O)NN2CCCC2)cc1.O=C(O)C(F)(F)F` [Compound 26b, (E)-2-(2-methyl-1H-indol-3-yl)-N-(4-(3-oxo-3-(pyrrolidin-1-ylamino)prop-1-en-1-yl)benzyl)ethanaminium 2,2,2-trifluoroacetate], in the data set with MV4–11 cells [6], the “effect on cell proliferation at 50 μM” value is reported as “do not affect cell proliferation”.
Still for that read-out and setting: the same measure for `Cc1[nH]c2ccccc2c1CCNCc1ccc(/C=C/C(=O)NN2CCCCC2)cc1.O=C(O)C(F)(F)F` [Compound 26c, (E)-2-(2-methyl-1H-indol-3-yl)-N-(4-(3-oxo-3-(piperidin-1-ylamino)prop-1-en-1-yl)benzyl)ethanaminium 2,2,2-trifluoroacetate]: “do not affect cell proliferation”; for `Cc1[nH]c2ccccc2c1CCNCc1ccc(/C=C/C(=O)NN(CCCO)CCCO)cc1.O=C(O)C(F)(F)F` [Compound 30, (E)-N-(4-(3-(2,2-bis(3-hydroxypropyl)hydrazinyl)-3-oxoprop-1-en-1-yl)benzyl)-2-(2-methyl-1H-indol-3-yl)ethanaminium 2,2,2-trifluoroacetate]: “do not affect cell proliferation”.
Consider `Nc1ccccc1NC(=O)c1ccc(CNC(=O)OCc2cccnc2)cc1` [Entinostat, entinostat], for which the pro-caspase3 cleavage entry with MV4–11 cells [4] is given as “observed”.
For `CCCNNC(=O)c1ccc(CNC(=O)/C=C/c2ccccc2)cc1` [LP411], in the data set with MV4–11 cells [4], the “FLT3 and STAT5 levels” value is on record as “down-regulate”; the pro-caspase3 cleavage result is reported as “observed”.
Take `Cc1[nH]c2ccccc2c1CCNCc1ccc(/C=C/C(=O)NO)cc1` [Panobinostat]: at HDAC1, the “on-kinetics, HDAC1” value is given as “fast-on kinetics”. The “on-kinetics, HDAC3” value on HDAC3 is “fast-on kinetics”. In the data set on MV4–11 cells [3], the acetylation of tubulin entry was “completely disappears after 30 min” and the “histone acetylation after removal of drug” value is on record as “begins to decrease after 1 h”. For the same molecule, in the data set on MV4–11 cells [4], the “increase in Hsp70 levels” value is given as “observed” and the pro-caspase3 cleavage entry is on record as “observed”. Moreover, in the data set with RS4;11 cells, the “cleavage of pro-caspase3” value is on record as “observed”. For the same molecule, the “number of the 60 cell lines with lethality under 10 μM” value in the data set on NCI60 tumor cell lines is recorded as 18. In [1], the “mutagenicity, Mini-Ames” value is recorded as “Ames positive”.
